How the values were obtained:
Type in all cases: cell-based, rat
[1] = system: DRG cells; test: Current clamp, changes in membrane potential in DRG cells; conditions: control (0 mol/L) −47.95 ± 0.22
Description: (§1) Experiments were performed on adult female Sprague Dawley rats. A population of unidentified DRG cells and a population of DRG neurons that innervate the urinary bladder were labeled by retrograde axonal transport of the fluorescent dye, Fast Blue (4% w/v) (Polyloy, Gross Umstadt, Germany) injected into the wall of the bladder in halothane-anesthetized animals 7 days before the dissociation. The dye was injected with a 28 gauge needle at three to six sites on the dorsal surface of the organ (5–6 μL per site, total volume of 20–30 μL). Each injection site was washed with saline to minimize contamination of adjacent organs with the dye.
(§2) Freshly dissociated neurons from DRG were prepared from halothane-anesthetized animals. L6 and S1 DRG were dissected from animals and then dissociated in a shaking bath for 25 minutes at 35° C. with 5 mL DMEM (Sigma) containing 0.3 mg/mL trypsin (Type 3, Sigma), 1 mg/mL collagenase (Type 1, Sigma), and 0.1 mg/ML deoxyribonuclease (Type 4, Sigma). Trypsin inhibitor (Type 2a, Sigma) was then added thereto to neutralize the activity of trypsin. Individual DRG cell bodies were isolated by trituration and then plated on a poly-L-lysine-coated 35 mm Petri dishes.
(§3) Dye-labeled primary afferent neurons that innervate the urinary bladder were identified using an inverted phase-contrast microscope (Nikon, Tokyo, Japan) with fluorescent attachments (UV-1A filter; excitation wavelength, 365 nm). Gigaohm-seal whole-cell recordings were performed within 6–8 hours after cell dissociation at room temperature (20–22° C.) on each labeled neuron in a culture dish that usually contained three to seven labeled cells among a few hundred unlabeled neurons. The internal solution contained (in mmol/L): KCl 140, CaCl2 1, MgCl2 2, EGTA 11, HEPES 10, Mg-ATP 2, and Tris-GTP 0.4 adjusted to pH 7.4 with KOH. Patch electrodes had resistances of 1–4 M Ω when filled with the internal solution. Neurons were superfused at a flow rate of 1.5 mL/minutes with an external solution containing (in mmol/L): NaCl 150, KCl 5, CaCl2 2.5, MgCl2 1, HEPES 10, and D-glucose 10, adjusted to pH 7.4 with NaOH. All recordings were made with an Axopatch-1D patch-clamp amplifier (Axon Instruments, Foster City, Calif.), and data were acquired and analyzed by PCLAMP software (Axon Instruments).
In current-clamp recordings, membrane potential of DRG cell were measured before and after compound applications. The membrane potentials were normalized to control (before addition of the compound).

[2] = system: Na^+ currents in DRG cells; test: Voltage clamp, inward Na+ currents in DRG cells
Description: as §1, with “First and second series of the experiments were performed, respectively, in unidentified DRG neurons and a specific” for “A”, “of” for “of unidentified”, “neurons innervating the urinary bladder. The” for “cells and a”, “Germany),” for “Germany)”
as §2, with “mg/mL” for “mg/ML”
as §3, with “performed” for “performed within 6–8 hours after cell dissociation”
Inward Na^+ currents were evoked by voltage steps to +60 mV, 800 ms long from a holding potentials of −90 mV. Currents were measured at the maximum (peak) and normalized to control (before addition of the compound).

[3] = system: delayed rectifier K^+ channel; test: Voltage clamp, delayed rectifier K+ currents in Fast Blue-labeled capsaicin-sensitive bladder afferent neurons; conditions: Compound 1 1.0 × 10^−6 mol/L
Description: as §1, with “First and second series of the experiments were performed, respectively, in unidentified DRG neurons and a specific” for “A”, “of” for “of unidentified”, “neurons innervating the urinary bladder. The” for “cells and a”, “Germany),” for “Germany)”
Freshly dissociated neurons from DRG were prepared from halothane-anesthetized animals. […]
Dye-labeled primary afferent neurons that innervate the urinary bladder were identified using an inverted phase-contrast microscope (Nikon, Tokyo, Japan) with fluorescent attachments (UV-1A filter; excitation wavelength, 365 nm). […] All recordings were made with an Axopatch-1D patch-clamp amplifier (Axon Instruments, Foster City, Calif.), and data were acquired and analyzed by PCLAMP software (Axon Instruments).
In voltage-clamp recordings, outward K^+ currents and inward Na^+ currents were measured. […]

C[C@](O)(C(=O)Nc1cccc2c1C(=O)c1sccc1CS2(=O)=O)C(F)(F)F [Compound 1, (S)-(+)-N-(5,5-dioxido-10-oxo-4,10-dihydrothieno[3,2-c][1]benzothiepin-9-yl)-3,3,3-trifluoro-2-hydroxy-2-methylpropanamide]
Membrane potential ([1]; Compound 1 1.0 × 10^−6 mol/L): −53.67 ± 0.74 mV | Membrane potential ([1]; Compound 1 1.0 × 10^−7 mol/L): −57.17 ± 0.53 mV | Membrane potential ([1]; Compound 1 1.0 × 10^−8 mol/L): −49.80 ± 0.65 mV | Membrane potential ([1]; Compound 1 1.0 × 10^−9 mol/L): −48.10 ± 0.48 mV | Membrane potential ([1]; Compound 1 5.0 × 10^−4 mol/L): −42.67 ± 1.46 mV | Membrane potential ([1]; Compound 1 5.0 × 10^−5 mol/L): −48.50 ± 1.28 mV | Membrane potential ([1]; Compound 1 5.0 × 10^−6 mol/L): −50.50 ± 0.88 mV | Na^+ ion currents, normalized to control (before addition) ([2]; Compound 1 1.0 × 10^−6 mol/L): 0.99 ± 0.02 | Na^+ ion currents, normalized to control (before addition) ([2]; Compound 1 5.0 × 10^−4 mol/L): 1.00 ± 0.01 | Na^+ ion currents, normalized to control (before addition) ([2]; Compound 1 5.0 × 10^−5 mol/L): 1.00 ± 0.01 | Na^+ ion currents, normalized to control (before addition) ([2]; Compound 1 5.0 × 10^−6 mol/L): 1.00 ± 0.00 | Na^+ ion currents, normalized to control (before addition) ([2]; Compound 1 5.0 × 10^−7 mol/L): 0.99 ± 0.01 | Na^+ ion currents, normalized to control (before addition) ([2]; Compound 1 5.0 × 10^−8 mol/L): 0.99 ± 0.01 | Influence upon Na^+ currents (in words) ([2]; DRG cells): does not exert influence upon Na^+ currents | Delayed rectifier HP: −40 mV, normalized to control [3]: 1.10 ± 0.01
